{"source": "ChEMBL document CHEMBL4330132", "about": "“5-Keto-3-cyano-2,4-diaminothiophenes as selective maternal embryonic leucine zipper kinase inhibitors” (Bioorg Med Chem Lett, 2019)", "key": {"[1]": {"tested_on": "Phosphatidylinositol 4,5-bisphosphate 3-kinase catalytic subunit alpha isoform (Homo sapiens), P42336 [H1047L]", "assay": "Binding affinity to human partial length PIK3CA H1047L mutant (R108 to N1068 residues) expressed in mammalian expression system assessed as residual binding level at 1 uM by Kinomescan method relative to control"}, "[2]": {"target": "Phosphatidylinositol 4-phosphate 5-kinase type-1 gamma (Homo sapiens) (UniProt O60331)", "assay": "Binding affinity to wild-type human partial length PIP5K1C (M1 to T668 residues) expressed in mammalian expression system assessed as residual binding level at 1 uM by Kinomescan method relative to control"}, "[3]": {"target": "Protein-tyrosine kinase 6 (Homo sapiens) (UniProt Q13882)", "assay": "Binding affinity to wild-type human partial length BRK (L166 to T451 residues) expressed in bacterial expression system assessed as residual binding level at 1 uM by Kinomescan method relative to control"}, "[4]": {"tested_on": "Receptor-type tyrosine-protein kinase FLT3 (Homo sapiens), P36888 [D835H]", "assay": "Binding affinity to human partial length FLT3 D835H mutant (V592 to Y969 residues) expressed in bacterial expression system assessed as residual binding level at 1 uM by Kinomescan method relative to control"}, "[5]": {"target": "Bone morphogenetic protein receptor type-1B (Homo sapiens) (UniProt O00238)", "assay": "Binding affinity to wild-type human partial length BMPR1B (D178 to L502 residues) expressed in mammalian expression system assessed as residual binding level at 1 uM by Kinomescan method relative to control"}, "[6]": {"target": "Cyclin-dependent kinase 19 (Homo sapiens) (UniProt Q9BWU1)", "sequence (Q9BWU1 whole entry, the tested form may be a part)": "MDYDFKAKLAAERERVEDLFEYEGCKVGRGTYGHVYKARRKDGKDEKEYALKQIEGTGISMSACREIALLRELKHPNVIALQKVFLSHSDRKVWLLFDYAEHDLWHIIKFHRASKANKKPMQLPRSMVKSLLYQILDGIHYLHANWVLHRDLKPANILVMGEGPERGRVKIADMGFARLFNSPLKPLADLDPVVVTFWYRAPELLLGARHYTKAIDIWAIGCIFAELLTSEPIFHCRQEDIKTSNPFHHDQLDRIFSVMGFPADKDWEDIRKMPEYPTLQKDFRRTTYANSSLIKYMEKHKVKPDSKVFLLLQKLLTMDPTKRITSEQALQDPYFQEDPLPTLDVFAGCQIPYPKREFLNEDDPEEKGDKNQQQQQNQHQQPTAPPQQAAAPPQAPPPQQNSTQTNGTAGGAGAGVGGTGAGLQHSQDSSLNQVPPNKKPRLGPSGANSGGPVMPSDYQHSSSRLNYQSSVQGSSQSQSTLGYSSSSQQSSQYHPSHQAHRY", "assay": "Binding affinity to wild-type human partial length CDK11 (M1 to N360 residues) expressed in bacterial expression system assessed as residual binding level at 1 uM by Kinomescan method relative to control"}, "[7]": {"target": "Interleukin-1 receptor-associated kinase 1 (Homo sapiens) (UniProt P51617)", "assay": "Binding affinity to wild-type human partial length IRAK1 (R194 to S712 residues) expressed in mammalian expression system assessed as residual binding level at 1 uM by Kinomescan method relative to control"}, "[8]": {"target": "Serine/threonine-protein kinase PAK 1 (Homo sapiens) (UniProt Q13153)", "sequence (Q13153 whole entry, the tested form may be a part)": "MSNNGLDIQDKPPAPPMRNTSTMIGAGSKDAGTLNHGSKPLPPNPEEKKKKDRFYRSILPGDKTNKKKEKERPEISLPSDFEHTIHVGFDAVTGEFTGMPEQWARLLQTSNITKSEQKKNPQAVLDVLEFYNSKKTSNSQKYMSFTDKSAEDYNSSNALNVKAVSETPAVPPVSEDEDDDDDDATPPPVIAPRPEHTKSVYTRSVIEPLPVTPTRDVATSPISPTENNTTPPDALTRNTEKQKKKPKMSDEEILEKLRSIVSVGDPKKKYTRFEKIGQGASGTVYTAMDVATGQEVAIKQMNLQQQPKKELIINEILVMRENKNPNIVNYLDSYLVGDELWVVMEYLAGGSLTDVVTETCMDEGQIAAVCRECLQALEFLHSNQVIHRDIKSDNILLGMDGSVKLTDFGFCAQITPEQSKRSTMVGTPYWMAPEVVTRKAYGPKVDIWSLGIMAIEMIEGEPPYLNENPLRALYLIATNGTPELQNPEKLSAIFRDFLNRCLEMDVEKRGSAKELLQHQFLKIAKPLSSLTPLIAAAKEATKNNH", "assay": "Binding affinity to wild-type human partial length PAK1 (S149 to H545 residues) expressed in bacterial expression system assessed as residual binding level at 1 uM by Kinomescan method relative to control"}, "[9]": {"target": "Dual specificity mitogen-activated protein kinase kinase 2 (Homo sapiens) (UniProt P36507)", "sequence (P36507 whole entry, the tested form may be a part)": "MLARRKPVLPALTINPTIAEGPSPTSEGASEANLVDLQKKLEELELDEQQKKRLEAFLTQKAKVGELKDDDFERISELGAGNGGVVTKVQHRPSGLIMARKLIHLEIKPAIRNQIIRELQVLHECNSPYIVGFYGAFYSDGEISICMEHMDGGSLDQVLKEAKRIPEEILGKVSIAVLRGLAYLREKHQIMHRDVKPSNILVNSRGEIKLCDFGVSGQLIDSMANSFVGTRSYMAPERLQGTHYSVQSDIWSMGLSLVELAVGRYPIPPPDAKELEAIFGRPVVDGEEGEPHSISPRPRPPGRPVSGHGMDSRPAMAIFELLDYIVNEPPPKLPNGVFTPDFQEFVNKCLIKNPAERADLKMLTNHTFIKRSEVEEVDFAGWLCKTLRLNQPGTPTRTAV", "assay": "Binding affinity to wild-type human full length MEK2 (M1 to V400 residues) expressed in mammalian expression system assessed as residual binding level at 1 uM by Kinomescan method relative to control"}, "[10]": {"target": "G protein-coupled receptor kinase 4 (Homo sapiens) (UniProt P32298)", "assay": "Binding affinity to wild-type human full length GRK4 (M1 to C578 residues) expressed in bacterial expression system assessed as residual binding level at 1 uM by Kinomescan method relative to control"}, "[11]": {"target": "Ribosomal protein S6 kinase alpha-4 (Homo sapiens) (UniProt O75676)", "assay": "Binding affinity to wild-type human partial length C-terminal RPS6KA4 kinase domain 2 (M375 to T705 residues) expressed in mammalian expression system assessed as residual binding level at 1 uM by Kinomescan method relative to control"}, "[12]": {"tested_on": "Epidermal growth factor receptor (Homo sapiens), P00533 [UNDEFINED MUTATION]", "assay": "Binding affinity to human partial length EGFR L747-T751del/Sins mutant expressed in bacterial expression system assessed as residual binding level at 1 uM by Kinomescan method relative to control"}, "[13]": {"target": "Fibroblast growth factor receptor 3 (Homo sapiens) (UniProt P22607)", "assay": "Binding affinity to wild-type human partial length FGFR3 (R442 to S771 residues) expressed in bacterial expression system assessed as residual binding level at 1 uM by Kinomescan method relative to control"}, "[14]": {"target": "Atypical kinase COQ8A, mitochondrial (Homo sapiens) (UniProt Q8NI60)", "assay": "Binding affinity to wild-type human full length ADCK3 (M280 to Q647 residues) expressed in bacterial expression system assessed as residual binding level at 1 uM by Kinomescan method relative to control"}, "[15]": {"target": "Serine/threonine-protein kinase N1 (Homo sapiens) (UniProt Q16512)", "sequence (Q16512 2-942 limits assumed)": "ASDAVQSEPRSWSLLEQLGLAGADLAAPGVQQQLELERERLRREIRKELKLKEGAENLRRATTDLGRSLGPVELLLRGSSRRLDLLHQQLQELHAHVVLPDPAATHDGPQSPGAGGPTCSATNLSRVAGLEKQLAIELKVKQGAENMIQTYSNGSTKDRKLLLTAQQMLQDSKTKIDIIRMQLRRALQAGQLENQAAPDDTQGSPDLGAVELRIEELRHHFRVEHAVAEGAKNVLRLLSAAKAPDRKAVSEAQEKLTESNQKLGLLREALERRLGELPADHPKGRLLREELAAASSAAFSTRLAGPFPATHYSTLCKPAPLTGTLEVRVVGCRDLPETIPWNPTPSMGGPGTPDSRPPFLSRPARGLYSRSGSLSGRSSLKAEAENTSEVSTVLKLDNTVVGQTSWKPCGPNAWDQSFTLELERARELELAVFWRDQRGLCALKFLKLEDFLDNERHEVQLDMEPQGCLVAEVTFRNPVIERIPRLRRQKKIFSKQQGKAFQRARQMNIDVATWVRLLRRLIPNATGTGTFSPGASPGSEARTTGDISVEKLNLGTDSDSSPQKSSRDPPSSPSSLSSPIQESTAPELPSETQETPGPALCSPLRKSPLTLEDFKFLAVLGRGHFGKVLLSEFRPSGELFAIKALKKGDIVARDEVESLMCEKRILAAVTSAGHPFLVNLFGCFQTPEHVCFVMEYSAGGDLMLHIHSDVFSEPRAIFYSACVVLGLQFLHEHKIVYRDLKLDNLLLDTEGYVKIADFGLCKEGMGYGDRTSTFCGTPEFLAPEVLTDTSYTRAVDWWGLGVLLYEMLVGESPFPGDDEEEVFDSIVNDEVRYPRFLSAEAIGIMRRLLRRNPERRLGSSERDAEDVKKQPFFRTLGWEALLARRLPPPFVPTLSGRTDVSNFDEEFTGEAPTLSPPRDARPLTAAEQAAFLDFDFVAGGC", "assay": "Binding affinity to wild-type human partial length PKN1 (E598 to C948 residues) expressed in bacterial expression system assessed as residual binding level at 1 uM by Kinomescan method relative to control"}, "[16]": {"target": "Tyrosine-protein kinase Fgr (Homo sapiens) (UniProt P09769)", "sequence (P09769 2-529 limits assumed)": "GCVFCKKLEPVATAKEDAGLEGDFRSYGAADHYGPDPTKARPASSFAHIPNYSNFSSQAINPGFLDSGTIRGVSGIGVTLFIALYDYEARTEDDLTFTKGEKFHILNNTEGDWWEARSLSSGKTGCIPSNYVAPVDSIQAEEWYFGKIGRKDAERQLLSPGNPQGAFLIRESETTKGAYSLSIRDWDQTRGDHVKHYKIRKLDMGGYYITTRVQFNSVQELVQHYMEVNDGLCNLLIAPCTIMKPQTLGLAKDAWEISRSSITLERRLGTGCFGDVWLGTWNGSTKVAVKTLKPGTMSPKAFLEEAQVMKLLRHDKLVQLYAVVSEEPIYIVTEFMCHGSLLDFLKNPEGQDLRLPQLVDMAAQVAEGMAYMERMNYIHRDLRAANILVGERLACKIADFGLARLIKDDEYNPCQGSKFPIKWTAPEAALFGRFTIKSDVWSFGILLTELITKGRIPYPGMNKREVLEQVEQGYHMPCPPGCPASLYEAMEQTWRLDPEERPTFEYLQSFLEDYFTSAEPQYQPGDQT", "assay": "Binding affinity to wild-type human partial length FGR (L233 to T529 residues) expressed in bacterial expression system assessed as residual binding level at 1 uM by Kinomescan method relative to control"}, "[17]": {"target": "Homeodomain-interacting protein kinase 3 (Homo sapiens) (UniProt Q9H422)", "assay": "Binding affinity to wild-type human partial length HIPK3 (M153 to N562 residues) expressed in mammalian expression system assessed as residual binding level at 1 uM by Kinomescan method relative to control"}, "[18]": {"target": "LIM domain kinase 2 (Homo sapiens) (UniProt P53671)", "assay": "Binding affinity to wild-type human full length LIMK2 (M1 to P638 residues) expressed in bacterial expression system assessed as residual binding level at 1 uM by Kinomescan method relative to control"}, "[19]": {"target": "Macrophage colony-stimulating factor 1 receptor (Homo sapiens) (UniProt P07333)", "assay": "Binding affinity to wild-type human partial length CSF1R (I564 to S939 residues) expressed in bacterial expression system assessed as residual binding level at 1 uM by Kinomescan method relative to control"}, "[20]": {"target": "Tyrosine-protein kinase HCK (Homo sapiens) (UniProt P08631)", "assay": "Binding affinity to wild-type human full length HCK (M22 to P526 residues) expressed in bacterial expression system assessed as residual binding level at 1 uM by Kinomescan method relative to control"}, "[21]": {"target": "Phosphatidylinositol 4-kinase beta (Homo sapiens) (UniProt Q9UBF8)", "sequence (Q9UBF8 2-816 limits assumed)": "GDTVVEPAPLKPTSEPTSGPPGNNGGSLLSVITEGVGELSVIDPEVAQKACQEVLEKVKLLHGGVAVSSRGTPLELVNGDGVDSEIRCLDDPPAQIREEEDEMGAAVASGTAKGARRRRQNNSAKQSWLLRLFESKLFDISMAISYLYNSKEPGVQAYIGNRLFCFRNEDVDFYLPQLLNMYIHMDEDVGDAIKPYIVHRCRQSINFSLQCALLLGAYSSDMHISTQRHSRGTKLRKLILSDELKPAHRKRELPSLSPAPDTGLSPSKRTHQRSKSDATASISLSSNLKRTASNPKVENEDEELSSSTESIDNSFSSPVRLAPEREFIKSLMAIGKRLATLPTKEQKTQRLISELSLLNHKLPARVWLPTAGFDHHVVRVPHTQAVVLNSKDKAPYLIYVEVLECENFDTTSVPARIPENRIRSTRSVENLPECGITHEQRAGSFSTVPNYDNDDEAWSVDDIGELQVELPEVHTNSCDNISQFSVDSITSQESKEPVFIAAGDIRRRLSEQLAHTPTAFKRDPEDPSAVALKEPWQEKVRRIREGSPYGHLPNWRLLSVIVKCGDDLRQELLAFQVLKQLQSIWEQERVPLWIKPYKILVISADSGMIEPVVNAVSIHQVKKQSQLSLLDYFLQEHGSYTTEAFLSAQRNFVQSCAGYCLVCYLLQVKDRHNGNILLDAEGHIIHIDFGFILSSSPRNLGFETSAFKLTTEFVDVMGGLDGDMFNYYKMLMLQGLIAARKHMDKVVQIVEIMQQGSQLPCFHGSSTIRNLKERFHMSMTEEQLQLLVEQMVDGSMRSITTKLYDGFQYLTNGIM", "assay": "Binding affinity to wild-type human full length PIK4CB (M1 to M828 residues) expressed in mammalian expression system assessed as residual binding level at 1 uM by Kinomescan method relative to control"}, "[22]": {"target": "Receptor tyrosine-protein kinase erbB-2 (Homo sapiens) (UniProt P04626)", "assay": "Binding affinity to wild-type human partial length ERBB2 (K646 to V1225 residues) expressed in mammalian expression system assessed as residual binding level at 1 uM by Kinomescan method relative to control"}, "[23]": {"target": "Tyrosine-protein kinase ABL1 (Homo sapiens) (UniProt P00519)", "assay": "Binding affinity to wild-type human non-phosphorylated ABL1 (S229 to K512 residues) expressed in mammalian expression system assessed as residual binding level at 1 uM by Kinomescan method relative to control"}, "[24]": {"target": "Cyclin-G-associated kinase (Homo sapiens) (UniProt O14976)", "sequence (O14976 whole entry, the tested form may be a part)": "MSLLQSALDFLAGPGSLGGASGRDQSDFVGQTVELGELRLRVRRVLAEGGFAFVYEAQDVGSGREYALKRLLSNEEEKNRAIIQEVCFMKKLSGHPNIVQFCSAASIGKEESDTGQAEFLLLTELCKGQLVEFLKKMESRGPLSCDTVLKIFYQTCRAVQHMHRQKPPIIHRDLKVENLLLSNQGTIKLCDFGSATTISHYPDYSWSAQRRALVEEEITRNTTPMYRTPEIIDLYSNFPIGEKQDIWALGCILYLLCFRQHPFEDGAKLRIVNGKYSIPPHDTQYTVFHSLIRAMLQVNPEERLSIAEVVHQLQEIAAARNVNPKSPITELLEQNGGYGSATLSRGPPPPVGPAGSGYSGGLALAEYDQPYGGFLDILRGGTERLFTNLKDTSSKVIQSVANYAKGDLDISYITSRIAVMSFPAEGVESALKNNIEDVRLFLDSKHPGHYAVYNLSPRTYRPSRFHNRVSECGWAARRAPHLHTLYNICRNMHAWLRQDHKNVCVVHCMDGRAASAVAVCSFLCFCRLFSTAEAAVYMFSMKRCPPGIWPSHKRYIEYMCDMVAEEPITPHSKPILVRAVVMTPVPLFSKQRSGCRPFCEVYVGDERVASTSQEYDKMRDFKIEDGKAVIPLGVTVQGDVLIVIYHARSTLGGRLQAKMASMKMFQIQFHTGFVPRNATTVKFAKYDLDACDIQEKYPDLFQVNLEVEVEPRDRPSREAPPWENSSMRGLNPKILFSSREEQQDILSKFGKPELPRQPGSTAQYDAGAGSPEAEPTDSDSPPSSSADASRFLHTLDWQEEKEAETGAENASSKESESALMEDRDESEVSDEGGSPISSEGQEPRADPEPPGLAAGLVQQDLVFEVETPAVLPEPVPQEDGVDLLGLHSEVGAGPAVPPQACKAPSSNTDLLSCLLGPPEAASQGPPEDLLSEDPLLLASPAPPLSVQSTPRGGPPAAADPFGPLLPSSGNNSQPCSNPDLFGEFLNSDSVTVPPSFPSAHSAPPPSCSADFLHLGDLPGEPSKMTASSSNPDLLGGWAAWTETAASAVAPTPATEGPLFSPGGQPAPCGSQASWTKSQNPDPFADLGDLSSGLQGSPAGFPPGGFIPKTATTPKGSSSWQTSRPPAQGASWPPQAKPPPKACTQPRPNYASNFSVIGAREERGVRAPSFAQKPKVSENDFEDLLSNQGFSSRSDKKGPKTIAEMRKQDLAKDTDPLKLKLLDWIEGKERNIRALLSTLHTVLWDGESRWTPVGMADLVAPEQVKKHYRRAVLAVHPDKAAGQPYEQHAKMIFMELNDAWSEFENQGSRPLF", "assay": "Binding affinity to wild-type human partial length GAK (G13 to Y338 residues) expressed in bacterial expression system assessed as residual binding level at 1 uM by Kinomescan method relative to control"}}, "data": [{"smiles": "CC(C)Nc1sc(C(=O)c2ccc(Cl)s2)c(N)c1C#N", "values": [{"measurement": "Activity", "setting": "[1]", "value": 99, "unit": "%"}, {"measurement": "Activity", "setting": "[2]", "value": 86, "unit": "%"}, {"measurement": "Activity", "setting": "[3]", "value": 83, "unit": "%"}, {"measurement": "Activity", "setting": "[4]", "value": 60, "unit": "%"}, {"measurement": "Activity", "setting": "[5]", "value": 94, "unit": "%"}, {"measurement": "Activity", "setting": "[6]", "value": 83, "unit": "%"}, {"measurement": "Activity", "setting": "[7]", "value": 77, "unit": "%"}, {"measurement": "Activity", "setting": "[8]", "value": 83, "unit": "%"}, {"measurement": "Activity", "setting": "[9]", "value": 100, "unit": "%"}, {"measurement": "Activity", "setting": "[10]", "value": 74, "unit": "%"}, {"measurement": "Activity", "setting": "[11]", "value": 79, "unit": "%"}, {"measurement": "Activity", "setting": "[12]", "value": 100, "unit": "%"}, {"measurement": "Activity", "setting": "[13]", "value": 100, "unit": "%"}, {"measurement": "Activity", "setting": "[14]", "value": 93, "unit": "%"}, {"measurement": "Activity", "setting": "[15]", "value": 56, "unit": "%"}, {"measurement": "Activity", "setting": "[16]", "value": 97, "unit": "%"}, {"measurement": "Activity", "setting": "[17]", "value": 89, "unit": "%"}, {"measurement": "Activity", "setting": "[18]", "value": 100, "unit": "%"}, {"measurement": "Activity", "setting": "[19]", "value": 97, "unit": "%"}, {"measurement": "Activity", "setting": "[20]", "value": 90, "unit": "%"}, {"measurement": "Activity", "setting": "[21]", "value": 100, "unit": "%"}, {"measurement": "Activity", "setting": "[22]", "value": 76, "unit": "%"}, {"measurement": "Activity", "setting": "[23]", "value": 100, "unit": "%"}, {"measurement": "Activity", "setting": "[24]", "value": 24, "unit": "%"}]}]}
